Test results as given in patent US20170354147A1, “SAFENING AMINOPYRALID COMPOSITIONS IN BRASSICA SPECIES WITH CLOPYRALID AND METHODS OF USE THEREOF” (Dow AgroSciences LLC, priority 2016, published 2017).
Where “and” joins values, the source holds several entries; their conditions need not be identical. Equal entries are not always repeated.

Tests used:
Type in all cases: in vivo
[1] = system: Aparima Gold swede (Brassica sp., BRSSS); assay: Field trials Canterbury, New Zealand, postemergence crop safety (visual injury, growth inhibition) to Aparima Gold swede
Description: (§1) The following equation was used to calculate the expected activity of mixtures containing two active ingredients, A and B:
(§2) Expected=A+B−(A×B/100) • A=observed efficacy of active ingredient A at the same concentration as used in the mixture; • B=observed efficacy of active ingredient B at the same concentration as used in the mixture.
(§3) BRSOM=Brassica oleracea var. acephala subvar. Medullosa (stem kale) BRSSS=Brassica sp. (Aparima Gold swede) BRSNS-RR=Brassica napus (spring rape or Spring Argentine rape, Roundup® Ready) g ae/ha=grams acid equivalent per hectare Mean % visual injury=observed value of percent (%) injury rated visually Observed Mean % visual injury=observed value of percent (%) injury rated visually Colby predicted mean % visual injury=expected value of percent (%) injury as calculated by Colby's equation Mean % visual leafroll=observed value of percent (%) leafroll rated visually Observed Mean % visual leafroll=observed value of percent (%) leafroll rated visually Colby predicted mean % visual leafroll=expected value of percent (%) leafroll as calculated by Colby's equation Mean % visual growth inhibition=observed value of percent (%) growth inhibition rated visually Observed Mean % visual growth inhibition=observed value of percent (%) growth inhibition rated visually Colby predicted mean % visual growth inhibition=expected value of percent (%) growth inhibition as calculated by Colby's equation
Two field trials were established in Canterbury, New Zealand to evaluate crop safety of herbicide treatments to leafy forage brassica crops (Aparima Gold swede (Brassica sp., BRSSS)). Trials were designed as randomized complete blocks with four replicates. All trials were established as weed-free tolerance trials with plot size of 3 meters (m) by 8 m (width×length). The crops were grown using normal cultural practices for fertilization, seeding, and maintenance to ensure good growth of the crop.
All herbicide treatments were applied post-emergence with applications made to the crops at the 3 to 5-leaf stage. Herbicides were applied with backpack sprayers using carbon dioxide (CO2) as a propellant. […] All treatments were applied with Uptake adjuvant (paraffinic oil/Non-Ionic Surfactant blend) at 1% v/v. Phytotoxicity to the crops was assessed visually at several intervals after application as percent overall injury, compared to an untreated control plot. The overall injury assessments were based on visual ratings of growth inhibition, leaf deformity, epinasty, and chlorosis.
Aminopyralid-TIPA was applied as Tordon™ Max Herbicide (30 g ae/L SL), and clopyralid-TIPA was applied as Versatill™ (300 g ae/L SL),

[2] = system: Aparima Gold swede (Brassica sp., BRSSS); assay: Pot trials, postemergence crop safety (visual injury) to Aparima Gold swede
Description: as §1, §2, §3
(§4) Two pot trials were established at Dow AgroSciences Waireka Field Research Station, New Zealand to evaluate crop safety of herbicide treatments to two species of leafy and bulb forage brassica crops (stem kale (Brassica oleracea var. acephala subvar. medullosa, BRSOM) and Aparima Gold swede (Brassica sp., BRSSS)). Trials were designed as randomized complete blocks with five replicates. Trials were established as weed-free tolerance trials. Pot size was 10 by 10 centimeters (cm, width×length). The forage brassica crops were grown using normal cultural practices for fertilization, seeding, watering and maintenance to ensure good growth of the crops.
(§5) All herbicide treatments were applied post-emergence with applications made to the crops at the 2 to 5-leaf stage. Herbicides were applied with a belt spray chamber system with compressed air as a propellant. The sprayer utilized a flat fan spray nozzle calibrated to deliver a uniform spray pattern that provided thorough coverage of the foliage using a 200 liters per hectare (L/ha) spray volume. All treatments were applied with Uptake adjuvant (paraffinic oil/Non-Ionic Surfactant blend) at 0.5% volume per volume (v/v). Phytotoxicity to the crops was assessed visually at several intervals after application as percent overall injury, compared to an untreated control plot. The overall injury assessments were based on visual ratings of growth inhibition, leaf deformity, epinasty, and chlorosis.
(§6) Aminopyralid-triisopropanolammonium (TIPA) was applied as Tordon™ Max Herbicide (30 grams acid equivalent per liter (g ae/L) soluble (liquid) concentrate (SL)), and clopyralid-TIPA was applied as Versatill™ (300 g ae/L SL), The compositions tested, application rates employed, plant species tested, and results are given in Table 1 through Table 3.

[3] = system: stem kale (Brassica oleracea var. acephala subvar. medullosa, BRSOM); assay: Pot trials, postemergence crop safety (visual injury, leafroll) to stem kale
Description: as §1, §2, §3, §4, §5, §6

[4] = system: Spring Argentine canola (Brassica napus, BRSNS), Nex 1012 glyphosate-tolerant, BRSNS-RR; assay: Field trials Canada, postemergence crop safety (visual injury) to glyphosate-tolerant Spring Argentine canola
Description: as §3
Field trials were established in Canada (in Manitoba, Alberta, and Saskatchewan) to evaluate crop safety of herbicide treatments to Spring Argentine canola (Brassica napus, BRSNS). Trials were designed as randomized complete blocks with four replicates. Trials were established as weed-free crop tolerance trials with plot sizes of 2-3 meters (m) by 8-25 m (width×length). The crops were grown using normal cultural practices for fertilization, seeding, and maintenance to ensure good growth of the crop.
The overall injury assessments were based on visual ratings of growth inhibition, leaf deformity, epinasty, chlorosis and delay in maturity. Assessments were made at 8-10 days after treatment (DAT) for an initial rating, 14-17 DAT for an early-season rating, 28-32 DAT for a mid-season rating, and 42-55 DAT for a late-season rating.
Aminopyralid-triisopropanolammonium (TIPA) was applied as Milestone® (240 g ae/L SL); clopyralid-olamine was applied as Lontrel™ 360 (360 g ae/L SL); and glyphosate-dimethylammonium was applied as Vantage™ XRT (480 g ae/L SL).

[5] = Glyphosate-DMA 450 g ae/ha alone (Aminopyralid-TIPA 0 g ae/ha)
[6] = 10 g ae/ha, with Glyphosate-DMA 450 g ae/ha
[7] = 20 g ae/ha, with Glyphosate-DMA 450 g ae/ha

O=C(O)c1nc(Cl)ccc1Cl [Clopyralid TIPA, (2RS,2′RS,2″RS)-tris(2-hydroxypropyl)ammonium 3,6-dichloropyridine-2-carboxylate]
Mean % Growth Inhibition ([1]; 13DAA1, 45 g ae/ha): 2.8%
Mean % Visual Injury ([1]; 13DAA1, 45 g ae/ha): 0.8%
Mean % Growth Inhibition ([1]; 13DAA1, 90 g ae/ha): 8.8%
Mean % Growth Inhibition ([1]; 13DAA1, 180 g ae/ha): 7.5%
Mean % Visual Injury ([1]; 13DAA1, 180 g ae/ha): 2.3%
Mean % Visual Injury ([1]; 22DAA1, 45 g ae/ha): 0.0%
Mean % Growth Inhibition ([1]; 28DAA1, 180 g ae/ha): 3.8%
Mean % Visual Injury ([1]; 28DAA1, 180 g ae/ha): 3.0%
Mean % Growth Inhibition ([1]; 56DAA1, 45 g ae/ha): 6.0%
Mean % Visual Injury ([2]; 3DAA1, 90 g ae/ha): 2.2%
Mean % Visual Injury ([2]; 7DAA1, 90 g ae/ha): 0.4%
Mean % Visual Injury ([2]; 15DAA1, 90 g ae/ha): 0.0%
Mean % Visual Injury ([2]; 28DAA1, 90 g ae/ha): 0.0%
Mean % Visual Leafroll ([3]; 1DAA1, 90 g ae/ha): 0.0%
Mean % Visual Leafroll ([3]; 1DAA1, 180 g ae/ha): 0.0%
Mean % Visual Leafroll ([3]; 1DAA1, 360 g ae/ha): 0.0%
Mean % Visual Leafroll ([3]; 4DAA1, 90 g ae/ha): 0.0%
Mean % Visual Leafroll ([3]; 4DAA1, 180 g ae/ha): 0.0%
Mean % Visual Injury ([3]; 7DAA1, 45.0 g ae/ha): 0.0% and 0.7%
Mean % Visual Injury ([3]; 7DAA1, 90.0 g ae/ha): 0.0% and 0.7%
Mean % Visual Injury ([3]; 7DAA1, 180.0 g ae/ha): 0.0% and 0.7%
Mean % Visual Injury ([3]; 7DAA1, 360.0 g ae/ha): 0.0% and 0.7%
Mean % Visual Injury ([3]; 15DAA1, 22.5 g ae/ha): 0.0%
Mean % Visual Injury ([3]; 15DAA1, 45 g ae/ha): 0%
Mean % Visual Injury ([3]; 15DAA1, 90 g ae/ha): 0%
Mean % Visual Leafroll ([3]; 15DAA1, 90 g ae/ha): 0.0%
Mean % Visual Leafroll ([3]; 15DAA1, 180 g ae/ha): 0.0%
Mean % Visual Injury ([3]; 15DAA1, 180.0 g ae/ha): 0.0%
Mean % Visual Leafroll ([3]; 15DAA1, 360 g ae/ha): 0.0%
Mean % Visual Injury ([3]; 15DAA1, 360.0 g ae/ha): 0.0%
Mean % Visual Injury ([3]; 28DAA1, 90.0 g ae/ha): 0.0%
Mean % Visual Injury ([3]; 28DAA1, 360 g ae/ha): 0%
Mean % Visual Leafroll ([3]; 28DAA1, 360 g ae/ha): 0.0%

CNC.O=C(O)CNCP(=O)(O)O [Glyphosate-DMA]
Mean % Visual Injury Early (14-17) DAT [4, 5]: 0.4%
Mean % Visual Injury Initial (8-10 DAT) [4, 5]: 1%
Mean % Visual Injury Late (42-55 DAT) [4, 5]: 0.2%
Mean % Visual Injury Mid (28-32 DAT) [4, 5]: 1.5%

Nc1cc(Cl)nc(C(=O)O)c1Cl [Aminopyralid TIPA, tris (2-hydroxypropyl)ammonium 4-amino-3,6-dichloropyridine-2-carboxylate]
Mean % Visual Growth Inhibition ([1]; 13DAA1, 60 g ae/ha): 28.8% and 28.9%
Mean % Visual Injury ([1]; 13DAA1, 60 g ae/ha): 22.5%
Mean % Visual Injury ([1]; 22DAA1, 60 g ae/ha): 28.8%
Mean % Visual Growth Inhibition ([1]; 28DAA1, 60 g ae/ha): 45.0%
Mean % Visual Injury ([1]; 28DAA1, 60 g ae/ha): 38.8%
Mean % Visual Growth Inhibition ([1]; 56DAA1, 60 g ae/ha): 8.8%
Mean % Visual Injury ([2]; 3DAA1, 60 g ae/ha): 6.8%
Mean % Visual Injury ([2]; 7DAA1, 60 g ae/ha): 9.6%
Mean % Visual Injury ([2]; 15DAA1, 60 g ae/ha): 15.4%
Mean % Visual Injury ([2]; 28DAA1, 60 g ae/ha): 15.6%
Mean % Visual Injury Early (14-17) DAT [4, 6]: 1.9%
Mean % Visual Injury Initial (8-10 DAT) [4, 6]: 2.8%
Mean % Visual Injury Late (42-55 DAT) [4, 6]: 1.5%
Mean % Visual Injury Mid (28-32 DAT) [4, 6]: 2.3%
Mean % Visual Injury Early (14-17) DAT [4, 7]: 5%
Mean % Visual Injury Initial (8-10 DAT) [4, 7]: 5%
Mean % Visual Injury Late (42-55 DAT) [4, 7]: 0.6%
Mean % Visual Injury Mid (28-32 DAT) [4, 7]: 5.6%
